Source: patent US5112515A, “Phenothrin shampoo” (Euroceltique, S.A., priority 1990, dated 1992)

Test system: Bacteria, moulds and yeasts
Assay: Efficacy of Antimicrobial Preservatives in Pharmaceutical Products (British Pharmacopoeia 1988), overall outcome
Assay type: cell-based
Conditions: specification of British Pharmacopoeia 1988
Description: The test procedure conformed with the specifications described in the 1988 British Pharmacopoeia--"Efficacy of Antimicrobial Preservatives in Pharmaceutical Products".
Aliquots of microbial suspensions of Pseudomonas aeruoinosa NC18 8626, Stahylococcus aureus NCTC 10788, Candida albicans NCPF 3179, and Asperoillus niger IMI 149007 were introduced into separate containers of the composition of Example 1 to achieve a final concentration of approximately 1×10^6 cfu/ml. The same volume of inoculum was simultaneously introduced into separate equivalent quantities of 0.1% peptone water to be used as controls. The inoculated product was stored in the dark at 20°-25° C.
1 ml aliquots of the inoculated product were removed at 0, 6, 24 and 48 hours, 7, 14 and 28 days. Each was added to 9 ml of 0.1% peptone water containing the following as preservative inactivating agents:
A topical preparation is considered to be effectively preserved if the following criteria are met:
Bacteria--the number of organisms recovered per ml is reduced by a factor of not less than 10^3 within 48 hours of challenge and no organism is recovered from 1 ml at 7 days and thereafter;
Moulds and Yeasts--the number of organisms recovered per ml is reduced by a factor of not less than 10^2 within 14 days of challenge and there is no increase thereafter.

**Q.** With O=[N+]([O-])C(Br)(CO)CO [bronopol, 2-bromo-2-nitropropane-1,3,-diol] as the compound, how does the “Antimicrobial protection / antimicrobial properties of the shampoo” value read?
**A.** good antimicrobial protection
